Laboratory results reported in US10968457B2, “Drug-inducible promoter and method of inducting gene expression using the same” (TOYOTA JIDOSHA KABUSHIKI KAISHA, priority 2015, dated 2021).

Columns and labels:
sugarcane variety Q165 = assay: RNAseq expression analysis of leaves before and after probenazole treatment; type: in vivo; conditions: 8% Oryzemate granules, 20 g/4 liters of soil, about 60 days after planting, selected gene
Excerpt: In Example 1, at the outset, a sugarcane variety Q165 was subjected to drug treatment with probenazole (8% Oryzemate granules, Meiji Seika Pharma Co., Ltd., 20 g/4 liters of soil) approximately 60 days after it had been planted. The leaves that had expanded from the top were sampled before and after the treatment, and total RNA was extracted using the RNeasy Plant Mini Kit (QIAGEN).
Subsequently, the obtained total RNA was subjected to RNAseq expression analysis (Illumina HiSeq Sequencing, both-ends analysis), so as to obtain read data set. With the use of the assembler (Velvet version 1.2.08), the read data were reassembled into contig sequence information. The contig sequence information resulting from such reassembly was compared with each RNA sequence, and mapping data were obtained using a mapping program (Bowtie version 1.0.0). The resulting data were designated as the original data for RNAseq analysis.
On the basis of the EST sequence, two types of gene expression regulatory DNAs located in the 5′ upstream region of the selected gene were obtained by the Straight Walk method developed by BEX Co., Ltd. Such gene expression regulatory DNAs are drug-inducible promoters whose transcription activity is activated in the presence of a drug, such as probenazole. […]

[1] = tested on: drug-inducible promoters, tp1 and tp2; assay: Real-time PCR of RNA levels in recombinants carrying tp1 or tp2 expression vectors, with and without probenazole treatment; type: in vivo, sugarcane variety Q165; conditions: Recombinants 1 to 8; Oryzemate granules (8% probenazole), 20 g/4 liters of soil; leaves sampled 0, 7 and 14 days after treatment; FIG. 7
Method: In Example 2, transcription promoting activity of the two types of drug-inducible promoters, tp1 and tp2, isolated in Example 1 was examined in the presence and in the absence of probenazole.
With the use of the tp1-carrying expression vector and the tp2-carrying expression vector constructed in the manner described above, Recombinants 1 to 8 were prepared. Recombinants 1 to 7 were prepared with the use of the tp1-carrying expression vector, and Recombinant 8 was prepared with the use of the tp2-carrying expression vector.
Recombinants 1 to 8 prepared in the manner described above were treated with Oryzemate granules (8% probenazole, Meiji Seika Pharma Co., Ltd., 20 g/4 liters of soil), and leaves were sampled therefrom 0 days after drug treatment (i.e., immediately before the treatment), 7 days after drug treatment, and 14 days after drug treatment. The RNA levels of the recombinants were quantified using the AB17500 real-time PCR apparatus (Applied BioSystems) in accordance with the SYBR Green method. A comparative example shown in FIG. 7 concerns a recombinant prepared with the use of ecc0002-Hd3a-pIG121-Hm. The control example shown in FIG. 7 concerns the Q165 wild-type sugarcane variety.

SMILES: C=CCOC1=NS(=O)(=O)c2ccccc21 [probenazole]
- increase in expression levels of EST sequence, drug treatment group versus non-treatment group (sugarcane variety Q165): ≥ 100 fold
- degree of gene expression induction [1]: ≥ 3 times
